Columns and labels:
[1] = tested on: Adults of Ctenocephalides felis; experiment: Test with cat fleas / oral uptake; format: in vivo; conditions: 100 ppm in citrated cattle blood, mortality after 24 h, strain "Georgi", at least 25% kill judged effective, read-out: % action (mortality of larvae)
Experimental: Test with Cat Fleas/Oral Uptake
To produce a suitable preparation, a suitable solution of active compound is prepared from 20 mg of active compound and 1 ml of DMSO. 20 μl of this formulation are added to 4 ml of citrated cattle blood and stirred.
20 unfed adult fleas (Ctenocephalides felis, strain “Georgi”) are placed into a chamber (Ø 5 cm) whose top and bottom are closed with gauze. A metal cylinder whose underside is covered with parafilm is placed onto the chamber. The cylinder contains the 4 ml of blood/active compound formulation which can be taken up by the fleas through the parafilm membrane. Whereas the blood is warmed to 37° C., the temperature in the area of the flea chambers is adjusted to 25° C. Controls are mixed with the same volume of DMSO, without addition of a compound. The determinations are carried out triplicate.
After 24 h, the mortality in % is determined.
Compounds which effect an at least 25% kill of the fleas within 24 h are judged to be effective.

Meloidogyne incognita = experiment: Meloidogyne test (nematicidal action, gall formation on lettuce roots); format: in vivo; conditions: 20 ppm active compound; 100% = no galls found, 0% = galls as untreated control; lettuce in sand
Experimental: To produce a suitable preparation of active compound, 1 part by weight of active compound is mixed with the stated amounts of solvent and emulsifier, and the concentrate is diluted with water to the desired concentration.
Containers are filled with sand, solution of active compound, Meloidogyne incognita egg larvae suspension and lettuce seeds. The lettuce seeds germinate and the plants develop. On the roots, galls are formed.
After the desired period of time, the nematicidal action is determined in % using gall formation as a measure. 100% means that no galls were found; 0% means that the number of galls on the treated plants corresponds to that of the untreated control.

Compound	mortality at 100 ppm [1] [%]	Kill rate in % after 14 days (Meloidogyne incognita) [%]
CN(Cc1ccc(Cl)nc1)C1=N/C(=N/C#N)SC1 [Example I-1, 4-(N-(6-chloro-3-pyridylmethyl)-N-methyl)amino-2-cyanimino-2,5-dihydro-[1,3]-thiazoline]	30	–
CN(Cc1ccc(Cl)nc1)C1=N/C(=N/C#N)SC1 [drawing 50]	–	98
